Laboratory results published in PubChem BioAssay (NCI).
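Assay format: 96-well plates, 48-hour exposure. TGI: concentration producing complete growth inhibition.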 Where a SMILES comes first, the peptide text is derived from it. The star is where a group is joined. Boc = CC(C)(C)OC(=O)*; OBn = c1ccc(CO*)cc1

What was measured:
Assay in all cases: inhibition of tumour cell growth, NCI panel, 48 h
[1] = system: OVCAR-8 ovarian
[2] = system: OVCAR-5 ovarian
[3] = system: SK-OV-3 ovarian
[4] = system: MDA-N
[5] = system: NCI-H522 lung
[6] = system: SN12C renal
[7] = system: NCI-H23 lung
[8] = system: SK-MEL-28 melanoma
[9] = system: CAKI-1 renal
[10] = system: EKVX NSCLC

| Compound | TGI [1] | TGI [2] | TGI [3] | TGI [4] | TGI [5] | TGI [6] | TGI [7] | TGI [8] | TGI [9] | TGI [10] |
| --- | --- | --- | --- | --- | --- | --- | --- | --- | --- | --- |
| Cc1cc(C)n(CN(Cn2nc(C)cc2C)C2CCCCC2)n1 | 58.4 µM | 53.8 µM | > 100 µM | 34.8 µM | 43.8 µM | 66.3 µM | 56.8 µM | 42.5 µM | 97.7 µM | 84.5 µM |
| CSc1cc(N)ccc1N=Nc1ccc(S(N)(=O)=O)cc1 | 53.6 µM | > 100 µM | > 100 µM | > 100 µM | 43.7 µM | > 100 µM | > 100 µM | > 100 µM | > 100 µM | > 100 µM |
| O=C(NCc1ccc(Cl)cc1)c1cc2sccc2nc1C(F)(F)F | 72.1 µM | > 100 µM | > 100 µM | > 100 µM | 95.2 µM | > 100 µM | > 100 µM | > 100 µM | > 100 µM | > 100 µM |
| C[N+](C)(C)c1ncnc2c1ncn2C1CCCCO1 (stereo not given) | > 100 µM | > 100 µM | > 100 µM | > 100 µM | > 100 µM | > 100 µM | > 100 µM | > 100 µM | > 100 µM | > 100 µM |
| NC(N)=NS(=O)(=O)c1ccc(NC(=O)c2ccc3nc4ccccc4c(Nc4ccc(S(N)(=O)=O)cc4)c3c2)cc1 | > 100 µM | > 100 µM | > 100 µM | > 100 µM | > 100 µM | > 100 µM | > 100 µM | > 100 µM | > 100 µM | > 100 µM |
| CC(=O)OCC=C(CCl)CCC(Br)C(C)(C)Br (mixture of isomers) | > 10 µM | > 10 µM | > 10 µM | > 10 µM | > 10 µM | > 10 µM | > 10 µM | > 10 µM | > 10 µM | > 10 µM |
| CCO/C(O)=C(/C(=N)N1CCCC1)C(=O)Nc1cccc(C(F)(F)F)c1 | > 100 µM | > 100 µM | > 100 µM | > 100 µM | > 100 µM | > 100 µM | > 100 µM | > 100 µM | > 100 µM | > 100 µM |
| C=C(C)C1CC=C(C)C2(C1)OCC(C)(C)C(C)O2 (stereo not given) | 31.7 µM | 38.5 µM | 53.7 µM | 47.4 µM | 46.4 µM | 33.4 µM | 48.4 µM | 63.9 µM | 36.7 µM | 62.3 µM |
| CN(C)CCNc1ncnc2nc(-c3ccc4ccccc4c3)[nH]c12 | > 100 µM | > 100 µM | > 100 µM | > 100 µM | > 100 µM | > 100 µM | > 100 µM | > 100 µM | > 100 µM | > 100 µM |
| CCOC(=O)C(/C=N\C(=S)Nc1ccc(OCC)cc1)=C(/O)c1ccccc1 | > 100 µM | > 100 µM | > 100 µM | > 100 µM | > 100 µM | > 100 µM | > 100 µM | > 100 µM | > 100 µM | > 100 µM |
| COC(=O)[C@@]12CCCC(=O)[C@@H]1[C@H]1CCCC[C@H]12 | > 100 µM | > 100 µM | > 100 µM | > 100 µM | > 100 µM | > 100 µM | > 100 µM | > 100 µM | > 100 µM | > 100 µM |
| Cc1cc(=O)oc2cc(O)ccc12 | > 100 µM | > 100 µM | > 100 µM | > 100 µM | > 100 µM | > 100 µM | > 100 µM | > 100 µM | > 100 µM | > 100 µM |
| COc1cc(C2S/C(=C/c3ccccc3)C(=O)N2c2ccc(Cl)c(Cl)c2)cc(OC)c1OC (stereo not given) | > 100 µM | > 100 µM | > 100 µM | > 84.9 µM | 51.4 µM | > 100 µM | > 100 µM | > 100 µM | > 100 µM | > 100 µM |
| C/C(O)=C/c1nc2ccc([N+](=O)[O-])cc2nc1/C=C(/C)O | > 100 µM | > 100 µM | > 100 µM | > 100 µM | 70 µM | > 100 µM | > 100 µM | > 100 µM | > 100 µM | > 100 µM |
| C[n+]1c2ccccc2c(C(=O)Nc2ccc(S(=O)(=O)N=C(N)N)cc2)c2ccccc21 | > 100 µM | > 100 µM | > 100 µM | > 100 µM | > 100 µM | > 100 µM | > 100 µM | > 100 µM | > 100 µM | > 100 µM |
| O=C(CNc1ccc(Cl)cc1Cl)NC1C=Cc2ccc(S(=O)(=O)Nc3ccc(Cl)cc3Cl)cc2C1=O (stereo not given) | > 100 µM | > 100 µM | > 100 µM | > 100 µM | > 100 µM | > 100 µM | > 100 µM | > 100 µM | > 100 µM | > 100 µM |

| Compound | TGI [1] | TGI [2] | TGI [3] | TGI [4] | TGI [5] | TGI [6] | TGI [7] | TGI [8] | TGI [9] | TGI [10] |
| --- | --- | --- | --- | --- | --- | --- | --- | --- | --- | --- |
| [N-]=[N+]=Nc1ccc(CNc2cc(=O)[nH]c(=O)[nH]2)cc1 | > 100 µM | > 100 µM | > 100 µM | > 100 µM | > 100 µM | > 100 µM | > 100 µM | 99.6 µM | > 100 µM | > 100 µM |
| CSC1=NS(=O)(=O)c2cc(C(=O)NN(C)C(=O)c3cc4c(cc3Cl)SC(SC)=NS4(=O)=O)c(Cl)cc2S1 | > 10 µM | > 10 µM | > 10 µM | > 10 µM | > 10 µM | > 10 µM | > 10 µM | > 10 µM | > 10 µM | > 10 µM |
| COc1ccc2nc3cc(Cl)ccc3c(NCCNCCCNC(=O)c3cc(-c4ccccc4)nc4ccccc34)c2c1 | > 100 µM | > 100 µM | > 100 µM | 97.5 µM | > 100 µM | > 100 µM | > 100 µM | > 100 µM | > 100 µM | > 100 µM |
| O=C1C(Br)=C(c2ccccc2)S(=O)c2ccccc21 (stereo not given) | 31.3 µM | 41 µM | 32.9 µM | 20.4 µM | 3.35 µM | 31 µM | 39.7 µM | 42.1 µM | 21.8 µM | 33.9 µM |
| COc1c(C)c(OC)c2c(c1O)[C@@H]1[C@@H]3Cc4c(OC)c(C)c(OC)c(O)c4[C@H](CNC(=O)c4cnc5ccccc5n4)N3[C@@H](C#N)[C@H](C2)N1C | 0.0212 µM | > 0.1 µM | > 0.0445 µM | 0.00362 µM | 0.00516 µM | > 0.0718 µM | 0.0121 µM | 0.00733 µM | > 0.0391 µM | > 0.00703 µM |
| COc1ccc(OC)c2c1C1CCC(=O)N1CN2C(C)=O (stereo not given) | > 100 µM | > 100 µM | > 100 µM | > 100 µM | > 100 µM | > 100 µM | > 100 µM | > 100 µM | > 100 µM | > 100 µM |
| Cc1c(-c2ccccc2)c(C#N)c2nnc(C(N)=O)c(N)n12 | > 100 µM | > 100 µM | > 100 µM | > 100 µM | > 100 µM | > 100 µM | > 100 µM | > 100 µM | > 100 µM | > 100 µM |
| CC(C)(C)OC(=O)NC(Cc1ccccc1)C(=O)NC(Cc1ccccc1)C(=O)NCC(=O)OCc1ccccc1 (stereo not drawn) (Boc-Phe-Phe-Gly-OBn; configuration not given here) | > 100 µM | > 100 µM | 46 µM | 53.3 µM | 48.8 µM | 85.9 µM | 80.7 µM | 42.7 µM | > 100 µM | > 100 µM |
| CCOC(=O)C(CS)NC(=O)CCCCCCCC(=O)NC(CS)C(=O)OCC (stereo not given) | > 100 µM | > 100 µM | > 100 µM | > 100 µM | > 100 µM | > 100 µM | > 100 µM | > 100 µM | > 100 µM | > 100 µM |
| Cc1c(NC2(C)C(=O)N(/N=C/c3ccccc3)N=C2c2ccccc2)n[nH]c1-c1ccccc1 (stereo not given) | > 100 µM | > 100 µM | > 100 µM | > 100 µM | > 100 µM | > 100 µM | > 100 µM | > 100 µM | > 100 µM | > 100 µM |
| S=C(S)NCC1CCC(CNC(=S)S)CC1 (stereo not given) | 47.9 µM | > 100 µM | > 100 µM | 81.4 µM | 28 µM | 44 µM | > 100 µM | > 100 µM | 30.6 µM | > 100 µM |
| Cn1nc(S(N)(=O)=O)s/c1=N/C(N)=S | > 100 µM | > 100 µM | > 100 µM | > 100 µM | > 100 µM | > 100 µM | > 100 µM | > 100 µM | > 100 µM | > 100 µM |
| COc1cc(S(=O)(=O)Nc2ccc(-c3csc(N4C(=O)CSC4c4ccccc4)n3)cc2)ccc1Cl (stereo not given) | > 100 µM | > 100 µM | > 100 µM | > 100 µM | > 100 µM | > 100 µM | > 100 µM | 65.1 µM | > 100 µM | > 100 µM |
| O=c1[nH]c2cc3[nH]c4ncccc4c(=O)c3cc2[nH]1 | > 10 µM | > 10 µM | > 10 µM | > 10 µM | > 10 µM | > 10 µM | > 10 µM | > 10 µM | > 10 µM | > 10 µM |
| CC1(C)Oc2ccc(NC(=O)CCC(N)C(=O)O)cc2O1 (stereo not given) | > 100 µM | > 100 µM | > 100 µM | > 100 µM | > 100 µM | > 100 µM | > 100 µM | > 100 µM | > 100 µM | > 100 µM |
